Experimental data from ChEMBL document CHEMBL3867422, “Design and synthesis of pyrimidinyl acyl thioureas as novel Hsp90 inhibitors in invasive ductal breast cancer and its bone metastasis” (Eur J Med Chem, 2016).

Legend:
[1] = biological target: Heat shock protein HSP 90-alpha (Homo sapiens) (UniProt P07900); experiment: Inhibition of human His-tagged Hsp90 alpha N-terminal domain ATPase activity expressed in Escherichia coli BL21(DE3) at 50 uM assessed as ADP formation by pyruvate kinase/lactate dehydrogenase-coupled assay
[2] = biological target: Heat shock protein HSP 90-alpha (Homo sapiens) (UniProt P07900); experiment: Inhibition of human His-tagged Hsp90 alpha N-terminal domain ATPase activity expressed in Escherichia coli BL21(DE3) at 6.25 uM assessed as ADP formation by pyruvate kinase/lactate dehydrogenase-coupled assay
[3] = biological target: Heat shock protein HSP 90-alpha (Homo sapiens) (UniProt P07900); experiment: Inhibition of human His-tagged Hsp90 alpha N-terminal domain ATPase activity expressed in Escherichia coli BL21(DE3) at 100 uM assessed as ADP formation by pyruvate kinase/lactate dehydrogenase-coupled assay
[4] = biological target: Heat shock protein HSP 90-alpha (Homo sapiens) (UniProt P07900); experiment: Inhibition of human His-tagged Hsp90 alpha N-terminal domain ATPase activity expressed in Escherichia coli BL21(DE3) at 12.5 uM assessed as ADP formation by pyruvate kinase/lactate dehydrogenase-coupled assay
[5] = biological target: Heat shock protein HSP 90-alpha (Homo sapiens) (UniProt P07900); experiment: Inhibition of human His-tagged Hsp90 alpha N-terminal domain ATPase activity expressed in Escherichia coli BL21(DE3) at 25 uM assessed as ADP formation by pyruvate kinase/lactate dehydrogenase-coupled assay
[6] = biological target: Heat shock protein HSP 90-alpha (Homo sapiens) (UniProt P07900); experiment: Inhibition of human His-tagged Hsp90 alpha N-terminal domain ATPase activity expressed in Escherichia coli BL21(DE3) at 3.125 uM assessed as ADP formation by pyruvate kinase/lactate dehydrogenase-coupled assay

| Structure (SMILES) | Activity [1] [nmol/min/mg] | Activity [2] [nmol/min/mg] | Activity [3] [nmol/min/mg] | Activity [4] [nmol/min/mg] | Activity [5] [nmol/min/mg] | Activity [6] [nmol/min/mg] |
| --- | --- | --- | --- | --- | --- | --- |
| CCn1cc(C(=O)NC(=S)Nc2ccc(OC)cc2)c(-c2ccccc2)nc1=O | 16.2 | 59.4 | 11.4 | 37.7 | 28.5 | 81.1 |
| CCn1cc(C(=O)NC(=S)Nc2ccc(F)cc2)c(-c2ccccc2)nc1=O | 38.2 | 84.1 | 27.6 | 72 | 53.1 | 92.6 |
| CCn1cc(C(=O)NC(=S)Nc2ccc(Br)cc2)c(-c2ccccc2)nc1=O | 16.4 | 63.6 | 13.5 | 39.7 | 26.6 | 80.1 |
| CCn1cc(C(=O)NC(=S)Nc2cccc3ccccc23)c(-c2ccccc2)nc1=O | 13.2 | 49.5 | 8.19 | 36.1 | 24.4 | 75.5 |
| CCn1cc(C(=O)NC(=S)Nc2ccc(C(N)=O)cc2)c(-c2ccccc2)nc1=O | 51.1 | 87.1 | 37.5 | 73.4 | 64 | 93.5 |
| CCn1cc(C(=O)NC(=S)Nc2ccc(Cl)cc2)c(-c2ccccc2)nc1=O | 61 | 83.5 | 49.8 | 74.1 | 70.4 | 88.8 |

Now from value to compound:

| Activity [1] [nmol/min/mg] | Activity [2] [nmol/min/mg] | Activity [3] [nmol/min/mg] | Activity [4] [nmol/min/mg] | Activity [5] [nmol/min/mg] | Activity [6] [nmol/min/mg] | Structure (SMILES) |
| --- | --- | --- | --- | --- | --- | --- |
| 38 | 85.7 | 28.9 | 70.9 | 50.1 | 93.5 | CCn1cc(C(=O)NC(=S)Nc2ccccc2C)c(-c2ccccc2)nc1=O |
| 32 | 70.3 | 26.1 | 60.8 | 40.4 | 85.3 | CCn1cc(C(=O)NC(=S)Nc2ccccc2)c(-c2ccccc2)nc1=O |
| 50.2 | 80 | 35.9 | 75.1 | 61.2 | 90.2 | CCn1cc(C(=O)NC(=S)NCc2ccccc2)c(-c2ccccc2)nc1=O |
| 43.4 | 80.5 | 33.1 | 72.9 | 55 | 90.2 | CCn1cc(C(=O)NC(=S)Nc2ccc(C)cc2)c(-c2ccccc2)nc1=O |
